TGI and GI50 data for 21 compounds are collected here from PubChem BioAssay (NCI).

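Cells were grown in 96-well plates and exposed to each compound for 48 hours at five concentrations; endpoints were interpolated linearly between bracketing concentrations, or set to the highest concentration if not reached. GI50: concentration for 50% inhibition of growth. TGI marks complete inhibition of growth.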 Where only a bound is given, the exact number is not on record here.

Assay in all cases: inhibition of tumour cell growth, NCI panel, 48 h
For experiment [1], the system named is A549 NSCLC.
Experiment [2] deals with DLD-1 colon.
Experiment [3] concerns EKVX NSCLC.
Experiment [4] deals with HCT-15 colon.
Experiment [5] relates to HL-60(TB) leukemia.
Experiment [6] deals with IGROV1 ovarian.
Experiment [7] concerns K-562 leukemia.
Experiment [8] relates to NCI/ADR-RES ovarian.
The subject of experiment [9] is OVCAR-8 ovarian.
In experiment [10] the test system is M14 melanoma.

Regarding `Cc1nc2ccccc2c(=O)n1CC(=O)O`, the TGI in experiment [1], in experiment [2], in [3], in experiment [4], in experiment [5] and in [6] was above 100 µM in each case. Besides, the TGI in [7], in experiment [8] and in experiment [9] was above 100 µM in each case.
Turning to `CC[C@@H](C(=O)[C@@H](C)[C@@H](O)[C@H](C)CCc1ccc(C)c(O)c1C(=O)O)[C@H]1O[C@](CC)([C@H]2CC[C@](O)(CC)[C@H](C)O2)C[C@@H]1C`, the TGI in [1] was found to be 11.9 µM; in experiment [2], 13.8 µM; in experiment [3] it was 9 µM; in experiment [4], 16 µM; in [5], 1.54 µM; in [6], 13.3 µM. Further, the values for the TGI in experiment [7], in experiment [10] and in experiment [9] were 3.05 µM, 13.8 µM and 14.3 µM, respectively.
For `Cc1ccc(/C(=C/C=C(C#N)C#N)Sc2cc(Cl)ccc2Cl)cc1`, the TGI in experiment [1] was above 100 µM; in experiment [3] it was 46.6 µM; in experiment [4], 12.5 µM; in [6] it was 32.6 µM; in [10], 16.4 µM; in [8], 7.58 µM.
As to `O=C(Nc1ccc(Cl)cc1)/C(Cc1cccc[n+]1[O-])=N\Nc1ccc([N+](=O)[O-])cc1[N+](=O)[O-]`, the TGI in experiment [1], in experiment [2], in [3], in experiment [4], in experiment [5] and in experiment [6] was above 100 µM throughout. Also, the TGI in experiment [7], in experiment [10] and in experiment [9] was above 100 µM each time.
For the compound `CC1(C)CCc2cc3c(-c4ccccc4)cc(=O)oc3cc2O1`, the TGI in experiment [2], in [3], in [4], in experiment [5], in [6] and in experiment [7] was above 100 µM in each case. In addition, the TGI in experiment [10] and in [9] was above 100 µM each time.
Consider `O=C1Nc2ccccc2Nc2nc3cccccc-3c21`, for which the TGI in experiment [1], in [2], in experiment [3], in experiment [4], in experiment [5] and in experiment [6] was above 100 µM each time. The TGI in experiment [7], in experiment [10] and in experiment [9] was above 100 µM each time.
Regarding `CCOc1ccc2c(ccc(/C=C\c3cc(C)c4cccnc4c3O)[n+]2C)c1`, the TGI in [1] is 26.4 µM; in experiment [2], 4.32 µM; in experiment [3], 15.2 µM; in experiment [4] it was 23.7 µM; in experiment [5], 1.05 µM; in [6], 21.1 µM. For the same compound, the TGI in [7] is 26.8 µM; in [10] it was 18.7 µM; in experiment [8] it was above 100 µM; in experiment [9], 38.8 µM.
`c1ccc2c(c1)nc1n2CSC1`: the TGI in [2], in [3], in experiment [4], in experiment [5], in [6] and in [7] was above 100 µM in each case. Besides, the TGI in [10] and in [9] was above 100 µM in each case.
Take `O=C(O)c1cc(=O)[nH]c(=S)[nH]1`: the TGI in experiment [1], in experiment [3], in [4], in experiment [5], in experiment [6] and in [7] was above 100 µM each time. Further, the TGI in experiment [10], in experiment [8] and in [9] was above 100 µM in each case.
Regarding `CN1C2C=C(c3ccccc3)CC1CC2` (stereo not given), the TGI in [1], in experiment [2], in experiment [3], in experiment [4], in experiment [5] and in experiment [6] was above 100 µM throughout. The TGI in [7], in experiment [10] and in experiment [9] was above 100 µM throughout.
In the case of `Cc1ccc(S(=O)(=O)Oc2cc(S(=O)(=O)O)cc3cc(S(=O)(=O)O)cc(N)c23)cc1`, the TGI in experiment [1], in [3], in experiment [4], in [5], in experiment [6] and in experiment [7] was above 100 µM each time. The TGI in experiment [10], in experiment [8] and in [9] was above 100 µM each time.
As for `CN1CCN(Cc2ccc(NC(=O)c3ccc(C#N)c(C#Cc4cnc(N)c5ncccc45)c3)cc2C(F)(F)F)CC1`, the results for the GI50 in experiment [3], in experiment [5] and in experiment [6] were 19.3 µM, 14.5 µM and 1.76 µM, respectively. Moreover, the TGI was 89.7 µM in experiment [3], above 100 µM in experiment [5] and 7.01 µM in experiment [6].
Regarding `[C-]#[O+].[Cl][Sn]([Cl])[Cl].[Cl][Sn]([Cl])[Cl].[Pt].c1ccncc1`, the TGI was above 100 µM in experiment [1]; above 100 µM in experiment [2]; above 100 µM in experiment [3]; above 100 µM in [4]; above 74 µM in [5]; above 100 µM in [6]. The TGI in experiment [7], in [8] and in experiment [9] was above 100 µM throughout. For the same compound, in [8], the GI50 was above 100 µM.
Consider `CC(=O)[O-].CC(=O)[O-].[NH2-].[Pt+2].c1ccncc1`, for which the TGI is above 100 µM in experiment [1]; above 100 µM in experiment [4]; 43.7 µM in experiment [5]; above 100 µM in experiment [6]; 71.6 µM in experiment [7]; above 100 µM in [10]. Further, the TGI was above 100 µM in [8] and 40.1 µM in [9]. Also, the GI50 in [8] was 80 µM.
On to `Cc1cccc2c(N)c3cccc(C(=O)NCCN(C)C)c3nc12`, for which the TGI in experiment [1] was found to be 3.5 µM; in [3] it was 0.469 µM; in experiment [4] it was 4.29 µM; in [5], 0.0427 µM; in [6] it was 0.508 µM; in experiment [7], 0.543 µM. The values for the TGI in experiment [10], in experiment [8] and in [9] were 0.422 µM, 4.74 µM and 2.01 µM, respectively.
Turning to `CC(C)=CC(=O)OC1C2C(C)C(=O)OC2C(O)C(C)C2C=CC(=O)C21C` (stereo not given), the TGI came out at 33.6 µM in [1]; 3.9 µM in experiment [2]; 7.88 µM in [3]; 8.52 µM in experiment [4]; 3.4 µM in experiment [5]; 7.48 µM in experiment [6]. The figures for the TGI in experiment [7], in experiment [8] and in [9] were 25.3 µM, 32.5 µM and 9.59 µM, respectively.
For the compound `CC(C)=CCc1c(C)cc2cc3c(c(O)c2c1O)C(O)=CC(=O)C3(CC=C(C)C)C/C=C(\C)CO` (stereo not given), the TGI in experiment [1] worked out at 77 µM; in experiment [2] it was 70.9 µM; in experiment [3], 70.7 µM; in [4] it was 68 µM; in experiment [5] it was 51.3 µM; in [6], 79.6 µM. The figures for the TGI in experiment [7], in experiment [8] and in experiment [9] were 90.9 µM, 102 µM and 76.8 µM, respectively.
For the compound `CCOP(=O)(OCC)C(Cc1ccc(OC)c(OC)c1)N=C(c1ccccc1)c1ccccc1` (stereo not given), the TGI is above 100 µM in [1]; above 100 µM in experiment [4]; 51.9 µM in experiment [5]; above 100 µM in experiment [6]; 22.4 µM in experiment [7]; above 100 µM in experiment [10]. Further, the TGI in experiment [8] and in experiment [9] was above 100 µM each time.
Take `CCOc1ccc(/C=C/[N+](=O)[O-])cc1`: the GI50 was 12.6 µM in experiment [1]; 25.7 µM in [3]; 2.84 µM in experiment [4]; 8.83 µM in [5]; 21.8 µM in [6]; 4.52 µM in [7]. Also, the GI50 was 2.06 µM in experiment [10], 33 µM in [8] and 13.2 µM in experiment [9]. Further, the TGI was 27.7 µM in experiment [1]; 81.7 µM in experiment [3]; 11.3 µM in experiment [4]; 49 µM in [5]; above 100 µM in [6]; above 100 µM in experiment [7]. Also, the TGI in experiment [10] is 4.24 µM; in experiment [8], above 100 µM; in [9], 27.1 µM.
Take `O=C(Nc1nc2ccc([N+](=O)[O-])cc2[n+]([O-])n1)C(F)(F)F`: the TGI in experiment [1] is 83.8 µM; in experiment [4] it was 98.8 µM; in [5], 34.9 µM; in [6] it was 44.5 µM; in experiment [7] it was 79.3 µM; in experiment [10], above 100 µM. Besides, the TGI in experiment [8] and in [9] was above 100 µM in each case.
Turning to `CC1=C[C@]2(CC(C)C3C(CC4(C)C5CCC6C(C)(C)C(=O)CC[C@@]67C[C@@]57CC[C@]34C)O2)OC1=O` (stereo not given in full), the TGI in experiment [1], in experiment [2], in experiment [3], in [4], in [5] and in experiment [6] was above 100 µM in each case. The TGI in [7], in experiment [10] and in experiment [9] was above 100 µM throughout.
